Experimental data from patent US20110224151A1, “Polymeric Micelle Composition for Treatment of Resistant Cancer and Preparation Method of the Same” (SAMYANG CORPORATION, priority 2008, published 2011).
Values after ≈ are worked out from the molar mass of the structure shown.

Tested on: DLD-1 colon cancer cells
Assay: Inhibition of P-glycoprotein: paclitaxel cytotoxicity with and without cyclosporin
Format: cell-based, human
Conditions: for IC50: Homo sapiens

CC(=O)O[C@H]1C(=O)[C@@]2(C)[C@H]([C@H](OC(=O)c3ccccc3)[C@]3(O)C[C@H](OC(=O)[C@H](O)[C@@H](NC(=O)c4ccccc4)c4ccccc4)C(C)=C1C3(C)C)[C@]1(OC(C)=O)CO[C@@H]1C[C@@H]2O [paclitaxel]
decrease of IC50 with cyclosporin as compared to paclitaxel alone (1.88 μg/mL cyclosporin, DLD-1 cells): 15 times
IC50 (DLD-1, DLD-1 cells treated with 1.88 μg/mL cyclosporin): 0.011 µg/mL
IC50 (DLD-1, paclitaxel administered alone, DLD-1 cells): 0.16 µg/mL (≈ 0.187 µM)
